Reference: patent EP0812190B1 (priority 1993, dated 1995)
Like-named read-outs stand apart in the source and are kept apart here.

Legend:
MAO-B = molecular target: T1, MAO-B (Rattus norvegicus, UniProt P19643); experiment: in vivo; details: for ED50 / inhibition at 0.5 mg/kg: rat
T1 sequence (P19643 1-520): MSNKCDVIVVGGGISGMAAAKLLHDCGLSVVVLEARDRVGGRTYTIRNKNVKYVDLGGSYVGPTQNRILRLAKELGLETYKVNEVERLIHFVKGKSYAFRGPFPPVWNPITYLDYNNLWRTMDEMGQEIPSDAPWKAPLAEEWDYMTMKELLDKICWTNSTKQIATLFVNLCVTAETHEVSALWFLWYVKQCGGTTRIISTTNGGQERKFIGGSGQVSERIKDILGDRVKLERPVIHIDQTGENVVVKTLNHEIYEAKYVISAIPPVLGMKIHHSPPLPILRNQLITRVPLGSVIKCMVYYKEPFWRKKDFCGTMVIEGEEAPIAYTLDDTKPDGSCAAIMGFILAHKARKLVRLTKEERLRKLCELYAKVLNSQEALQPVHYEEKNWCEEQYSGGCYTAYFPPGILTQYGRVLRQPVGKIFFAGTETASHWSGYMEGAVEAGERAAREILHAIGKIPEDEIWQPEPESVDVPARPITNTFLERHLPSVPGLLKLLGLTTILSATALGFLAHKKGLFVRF
Experimental: Groups of three rats were used for each dose level of inhibitor, and MAO activity determined in brain and liver using the general technique described above. The amount of protein in each incubation was determined using the Folin-Lowry method, and enzyme activity calculated as nmol of substrate metabolized per hour of incubation for each mg of protein. Activity of MAO in tissues from animals treated with inhibitors was expressed as a percentage of the enzyme activity in a group of control animals administered vehicle (water for oral administration, 0.9% saline for ip injection) and killed as above.

MAO-A = molecular target: T2, MAO-A (Rattus norvegicus, UniProt P21396); details: 21 days
T2 sequence (P21396 1-526): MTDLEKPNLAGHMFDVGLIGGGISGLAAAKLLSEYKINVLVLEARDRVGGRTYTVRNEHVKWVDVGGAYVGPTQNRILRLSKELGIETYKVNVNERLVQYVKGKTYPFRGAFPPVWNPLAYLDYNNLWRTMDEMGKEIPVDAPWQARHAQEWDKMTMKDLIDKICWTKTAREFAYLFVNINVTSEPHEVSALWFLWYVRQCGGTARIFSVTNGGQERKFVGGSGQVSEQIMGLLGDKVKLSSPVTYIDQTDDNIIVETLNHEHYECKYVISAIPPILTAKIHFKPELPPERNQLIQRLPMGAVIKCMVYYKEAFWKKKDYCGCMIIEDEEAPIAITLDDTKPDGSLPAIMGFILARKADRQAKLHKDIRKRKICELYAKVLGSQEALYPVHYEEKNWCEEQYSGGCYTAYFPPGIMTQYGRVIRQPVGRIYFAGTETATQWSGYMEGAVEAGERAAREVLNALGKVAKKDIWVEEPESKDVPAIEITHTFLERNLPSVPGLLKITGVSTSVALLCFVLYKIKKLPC
Experimental: (+)PAI or the racemic mixture at three dose levels (0.05, 0.1 and 0.5mg/kg) by oral administration, one dose daily for 21 days, and decapitated 2 hours after the last dose.

[1] = test system: passive avoidance response
Experimental: [R] (+)PAI or [S] (-)PAI were administered according to one of the following protocols.
Protocol A - Nursing mothers were given a dose of either isomer of 1-1.5 mg/kg/day in drinking water until weaning at 21 days. Following that, the weaned offsprings were directly treated with the same dose for 20 days. Treatment was terminated at 40 days and the test was performed at 60 days, that is 20 days after the last dose of the drug.
Protocol B - The dose was reduced to 0.5 mg/kg/day administered to the nursing mother until weaning at 21 days, then directly to the young rats to 60 days at which time the test was performed. ,
Passive Avoidance Test - The apparatus consisted of a lit chamber adjoining a dark chamber and a sliding door separating the two. At training, a rat was placed in the lit chamber for 30 seconds, and then the door was opened. The rat moved to the dark chamber with a latency that was recorded. Upon entry of the rat into the dark compartment, the door was closed and a 0.3 mA foot-shock was delivered for 3 seconds.

[2] = test system: anoxia-induced hyperactive syndrome; details: 0.5 mg/kg/day to nursing mothers
Experimental: Anoxia was performed on rat pups on the first post-natal day. They were placed in a glass chamber and exposed to 100% nitrogen for 25 minutes. They were resuscitated by intermittent massage softly applied to the chest and then returned to their respective mothers. Control rats received the same treatment but with air instead of nitrogen.
Locomotion was measured in 6 fully computerized cages (28 x 28 cm) by recording the number of crossings over a given period of time. Crossings of grid infrared beams at 4-cm intervals initiated electrical impulses which fed a counter.
Recordings of motor activity were made at the ages of 15 and 20 days, over a period of 15 minutes.

rabbit jejunum = experiment: Tyramine potentiation in rabbit jejunum preparation
guinea-pig ileum [3] = test system: guinea-pig ileum
guinea-pig ileum [4] = details: bethanechol 0.8 µM; PAI HCl 20 µM
guinea-pig ileum [5] = experiment: tissue or blood; details: Cavia porcellus, read-out: Percent relaxation
[6] = Protocol A, Anoxia-lesioned rats
[7] = Protocol B, Anoxia-lesioned rats

For C#CCN[C@@H]1CCc2ccccc21 [[R](+)PAI, R(+)-N-propargyl-1-aminoindan], the “inhibition of MAO-B in brain and liver” value (MAO-B; dose of 1mg/kg) was “complete inhibition”, the ED50 (MAO-B; ip, 1 h, read-out: IC-50 MAO-B I.P. BRAIN) was 0.07 mg/kg and the ED50 (MAO-B; ip, 1 h, read-out: IC-50 MAO-B I.P. LIVER) was 0.06 mg/kg. It also gave an inhibition at 0.5 mg/kg (MAO-B; ip, read-out: inhibition of brain MAO-B activity) of 90%, an ED50 (MAO-B; po, 2 h, read-out: IC-50 MAO-B P.O. BRAIN) of 0.17 mg/kg and an ED50 (MAO-B; po, 2 h, read-out: IC-50 MAO-B P.O. LIVER) of 0.05 mg/kg. For the same compound, the inhibition at 0.5 mg/kg (MAO-B; po, read-out: inhibition of MAO-B) was 80%, the “inhibition of brain MAO-A” value (MAO-A; 0.1mg/kg daily oral) was ≤ 20% and the “inhibition of MAO-A” value (MAO-A; 0.5mg/kg daily oral) was “less than 50%”. The “latency After Electroshock” value [1, 6] was 239 ± 99 s, the “latency Before Electroshock” value [1, 6] was 49 ± 10 s and the “percent increase of latency After Electroshock” value (shortened to “percent increase”) ([1]; Protocol A, Anoxia-lesioned rats, versus corresponding anoxia group) was 19%. The “latency After Electroshock” value ([1]; Protocol A, Control rats) was 220 ± 100 s, the “percent increase” value ([1]; Protocol A, Control rats, versus corresponding control group) was “+9%” and the “latency Before Electroshock” value ([1]; Protocol B (0.5 mg/kg/day), Control rats) was 48 ± 11 s. The “latency After Electroshock” value [1, 7] was 137 ± 126 s, the “latency Before Electroshock” value [1, 7] was 52 ± 12 s and the “percent increase” value [1, 7] was “+15%”. The “latency After Electroshock” value ([1]; Protocol B, Control rats) was 128 ± 119 s, the “percent increase” value ([1]; Protocol B, Control rats) was “+23%” and the “numbers of crossings of infrared beam grid over 15 minutes” value (shortened to “numbers of crossings … over 15 minutes”) ([2]; Anoxia-lesioned, 15-day old rats) was 276 ± 186(15)a. For the same compound, the “numbers of crossings … over 15 minutes” value ([2]; Anoxia-lesioned, 20-day old rats) was 737 ± 150 (16) c, the “numbers of crossings … over 15 minutes” value ([2]; Control, 15-day old rats) was 254 ± 149(11)c and the “numbers of crossings … over 15 minutes” value ([2]; Control, 20-day old rats) was 719 ± 110(13). The Percent relaxation (rabbit jejunum; PAI HCl enantiomer alone 0.2-4.0 µM) was 0%, the Percent relaxation (rabbit jejunum; tyramine 40 µM after 0.2 µM PAI HCl enantiomer) was 67% and the Percent relaxation (rabbit jejunum; tyramine 40 µM after 2 µM PAI HCl enantiomer) was 88%. For the same compound, the Percent relaxation (rabbit jejunum; tyramine 40 µM after 40 µM PAI HCl enantiomer) was 85-90%, the gram-tension (guinea-pig ileum [3]; bethanechol 0.8 µM, 400 µM PAI HCl enantiomer) was 0.2 gram-tension and the gram-tension (guinea-pig ileum [3]; bethanechol 2 µM, 400 µM enantiomer) was 0.3 gram-tension. The gram-tension (guinea-pig ileum [3]; bethanechol 4 µM, 400 µM enantiomer) was 0.7 gram-tension, the gram-tension (guinea-pig ileum [3]; bethanechol 8 µM, 400 µM enantiomer) was 1.0 gram-tension and the gram-tension (guinea-pig ileum [3]; bethanechol 20 µM, 400 µM enantiomer) was 2.0 gram-tension. It also gave a gram-tension (guinea-pig ileum [3]; bethanechol 40 µM, 400 µM enantiomer) of 2.8 gram-tension, a gram-tension (guinea-pig ileum [3]; bethanechol 80 µM, 400 µM enantiomer) of 3.1 gram-tension and a gram-tension (guinea-pig ileum [3]; bethanechol 200 µM, 400 µM enantiomer) of 4.3 gram-tension. The Percent relaxation (guinea-pig ileum [4]) was 25%, the inhibition at 2 µM (guinea-pig ileum [5]) was 0% and the inhibition at 4 µM (guinea-pig ileum [5]) was 0%. It also gave an inhibition at 10 µM (guinea-pig ileum [5]) of 0%, an inhibition at 40 µM (guinea-pig ileum [5]) of 37% and an inhibition at 400 µM (guinea-pig ileum [5]) of 100%. It also gave an inhibition at 700 µM (guinea-pig ileum [5]) of 100%.
